Patent publication US20230405157A1, “MELANOCORTIN TYPE 2 RECEPTOR (MC2R) TARGETED THERAPEUTICS AND USES THEREOF” (Radionetics Oncology, Inc., priority 2022, published 2023)

These compounds were tested against T1, human MC2R (Homo sapiens, UniProt Q01718) (assay: Inhibition of binding of ACTH in human MC2R-containing membranes (SPA radioligand competition)). Conditions: competition with 0.2 nM [125I]-TYR23]-ACTH (1-39), membranes of CHO-K1 cells expressing hMC2 receptor; read-out: hMC2 membrane binding.
T1 construct: host or cells: CellSensor CRE-bla CHO-K1 cells
T1 sequence (Q01718 whole entry): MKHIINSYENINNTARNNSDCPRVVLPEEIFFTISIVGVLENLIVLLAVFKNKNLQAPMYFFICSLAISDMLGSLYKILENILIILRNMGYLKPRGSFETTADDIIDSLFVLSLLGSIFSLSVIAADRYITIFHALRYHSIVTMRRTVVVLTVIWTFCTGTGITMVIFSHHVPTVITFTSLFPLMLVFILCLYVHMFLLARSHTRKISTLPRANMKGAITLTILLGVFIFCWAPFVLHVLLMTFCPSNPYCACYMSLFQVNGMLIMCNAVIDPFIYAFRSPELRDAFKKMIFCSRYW
T1 sequence (Q8TCY5 whole entry partner): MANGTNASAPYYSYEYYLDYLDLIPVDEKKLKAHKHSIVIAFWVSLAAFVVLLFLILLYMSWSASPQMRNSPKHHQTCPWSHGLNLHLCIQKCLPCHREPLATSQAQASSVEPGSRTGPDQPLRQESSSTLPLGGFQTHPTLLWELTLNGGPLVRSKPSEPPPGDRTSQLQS
Experimental: Crude membrane fractions are prepared from CellSensor CRE-blaCHO-K1 cells stably expressing functional hMC2 receptor (ThermoFisher #K1483). […] Cells were collected and washed in Dulbecco's phosphate buffered saline (Corning #21-031-CV). […] The membrane fraction is separated from cell debris and collected in membrane preparation buffer, flash frozen in liquid nitrogen and stored at −80° C. […] Briefly, membranes from cells expressing the human MC2R were incubated with SPA beads (PerkinElmer #RPNQ0001) in binding assay buffer [50 mM HEPES (Biopioneer #C0113), 5 mM MgCl2 (Sigma #M8266), 1 mM CaCl2) (Fisher Scientific #BP510), 0.2% BSA (Fisher Scientific #BP1600), and protease inhibitors (Pierce #A32963); pH 7.4]. […] All data manipulations to determine the Kivalues were performed using GraphPad v8 (GraphPad, San Diego CA)
“2,2′,2″-(10-((R)-8-amino-1-(2′-ethoxy-5-((R)-4-(6-ethoxy-2-(trifluoromethyl)-nicotinoyl)-2-ethylpiperazin-1-yl)-[2,3′-bipyridin]-6-yl)-7,10,18-trioxo-14-oxa-2,6,11,17-tetra-azanonadecan-19-yl)-1,4,7,10-tetraazacyclododecane-1,4,7-triyl)triacetic acid [Compound 10]” gave a Ki of less than 10 nM.
In the case of `CCOc1ccccc1-c1ccc(N2CCN(C(=O)c3ccc(Cl)cc3C(F)F)C[C@H]2CC)c(C(=O)NC2CCN(CCCOc3cc(NCCOCCNC(=O)CN4CCN(CC(=O)O)CCN(CC(=O)O)CCN(CC(=O)O)CC4)cc(C(=O)O)c3)C2)n1` (stereo in doubt) [Compound 13, 2,2′,2″-(10-(2-((2-(2-((3-carboxy-5-(3-((R)-3-(3-((R)-4-(4-chloro-2-(difluoromethyl)benzoyl)-2-ethylpiperazin-1-yl)-6-(2-ethoxyphenyl)picolinamido)pyrrolidin-1-yl)propoxy)phenyl)amino)ethoxy)ethyl)amino)-2-oxoethyl)-1,4,7,10-tetraazacyclododecane-1,4,7-triyl)triacetic acid], the Ki is reported as less than 10 nM.
In the case of `CCOc1ccc(C(=O)N2CCN(c3ccc(-c4cccnc4OCC)nc3CNCCCNC(=O)C[C@H](O)C[C@H](O)CCNC(=O)CN3CCN(CC(=O)O)CCN(CC(=O)O)CCN(CC(=O)O)CC3)[C@H](CC)C2)c(C(F)(F)F)n1` [Compound 6, 2,2′,2″-(10-(2-(((3R,5R)-7-((3-(((2′-ethoxy-5-((R)-4-(6-ethoxy-2-(trifluoromethyl)-nicotinoyl)-2-ethylpiperazin-1-yl)-[2,3′-bipyridin]-6-yl)methyl)amino)propyl)-amino)-3,5-dihydroxy-7-oxoheptyl)amino)-2-oxoethyl)-1,4,7,10-tetraazacyclododecane-1,4,7-triyl)triacetic acid], the Ki is reported as less than 10 nM.
`CCOc1ccccc1-c1ncc(C2(C(=O)N[C@@H]3CCN(CCOCCOCCOCCOCCNC(=O)CN4CCN(CC(=O)O)CCN(CC(=O)O)CCN(CC(=O)O)CC4)C3)CCN(c3ccc(C(F)(F)F)cc3C#N)CC2)cc1F` [Compound 9, (R)-2,2′,2″-(10-(17-(3-(1-(2-cyano-4-(trifluoromethyl)phenyl)-4-(6-(2-ethoxy-phenyl)-5-fluoropyridin-3-yl)piperidine-4-carboxamido)pyrrolidin-1-yl)-2-oxo-6,9,12,15-tetra-oxa-3-azaheptadecyl)-1,4,7,10-tetraazacyclododecane-1,4,7-triyl)triacetic acid] was tested, and the Ki was less than 10 nM.
With `CCOc1ccc(C(=O)N2CCN(c3ccc(-c4cccnc4OCC)nc3CNCCCCCCCCCCCCCCCNC(=O)CN3CCN(CC(=O)O)CCN(CC(=O)O)CCN(CC(=O)O)CC3)[C@H](CC)C2)c(C(F)(F)F)n1` [Compound 14, (R)-2,2′,2″-(10-(2-((15-(((2′-ethoxy-5-(4-(6-ethoxy-2-(trifluoromethyl)nicotinoyl)-2-ethylpiperazin-1-yl)-[2,3′-bipyridin]-6-yl)methyl)amino)pentadecyl)amino)-2-oxoethyl)-1,4,7,10-tetraazacyclododecane-1,4,7-triyl)triacetic acid] the Ki was less than 10 nM.
Compound `CCOc1ccc(C(=O)N2CCN(c3ccc(-c4cccnc4OCC)cc3CNCCNCCCOCCOCCOCCOCCNC(=O)CN3CCN(CC(=O)O)CCN(CC(=O)O)CCN(CC(=O)O)CC3)[C@H](CC)C2)c(C(F)(F)F)n1` [Compound 15, (R)-2,2′,2″-(10-(1-(2-(4-(6-ethoxy-2-(trifluoromethyl)nicotinoyl)-2-ethylpiperazin-1-yl)-5-(2-ethoxypyridin-3-yl)phenyl)-22-oxo-9,12,15,18-tetraoxa-2,5,21-triazatricosan-23-yl)-1,4,7,10-tetraazacyclododecane-1,4,7-triyl)triacetic acid] has a Ki of less than 10 nM.
In the case of `CCOc1ccc(C(=O)N2CCN(c3ccc(-c4ccccc4OCC)nc3CNCCNCCCOCCOCCOCCOCCNC(=O)CN3CCN(CC(=O)O)CCN(CC(=O)O)CCN(CC(=O)O)CC3)[C@H](CC)C2)c(C(F)(F)F)c1` [Compound 17, (R)-2,2′,2″-(10-(1-(3-(4-(4-ethoxy-2-(trifluoromethyl)benzoyl)-2-ethylpiperazin-1-yl)-6-(2-ethoxyphenyl)pyridin-2-yl)-22-oxo-9,12,15,18-tetraoxa-2,5,21-triazatricosan-23-yl)-1,4,7,10-tetraazacyclododecane-1,4,7-triyl)triacetic acid], the Ki is reported as less than 10 nM.
`CCOc1ccc(C(=O)N2CCN(c3ccc(-c4cccnc4OCC)nc3CNCCCOCCOCCOCCOCCNC(=O)CCC(C(=O)O)N3CCN(CC(=O)O)CCN(CC(=O)O)CCN(CC(=O)O)CC3)[C@H](CC)C2)c(C(F)(F)F)n1` (stereo partly drawn) [Compound 18, 2,2′,2″-(10-(22-carboxy-1-(2′-ethoxy-5-((R)-4-(6-ethoxy-2-(trifluoromethyl)-nicotinoyl)-2-ethylpiperazin-1-yl)-(2,3′-bipyridin]-6-yl)-19-oxo-6,9,12,15-tetraoxa-2,18-diazadocosan-22-yl)-1,4,7,10-tetraazacyclododecane-1,4,7-triyl)triacetic acid] showed a Ki of less than 10 nM.
With `CCOc1ccc(C(=O)N2CCN(c3ccc(-c4cccnc4OCC)cc3CNCCNCCCOCCOCCOCCOCCNC(=O)CN3CCN(CC(=O)[O-])CCN(CC(=O)[O-])CCN(CC(=O)[O-])CC3)[C@H](CC)C2)c(C(F)(F)F)n1.[Ga+3]` [^69/71Ga complex of Compoud 15, gallium (R)-2,2′,2″-(10-(1-(2-(4-(6-ethoxy-2-(trifluoromethyl)nicotinoyl)-2-ethylpiperazin-1-yl)-5-(2-ethoxypyridin-3-yl)phenyl)-22-oxo-9,12,15,18-tetraoxa-2,5,21-triazatricosan-23-yl)-1,4,7,10-tetraazacyclododecane-1,4,7-triyl)triacetate] the Ki was less than 10 nM.
Compound `CCOc1ccc(C(=O)N2CCN(c3ccc(-c4cccnc4OCC)nc3CNCCCC[C@@H](NC(=O)CN3CCN(CC(=O)O)CCN(CC(=O)O)CCN(CC(=O)O)CC3)C(=O)O)[C@H](CC)C2)c(C(F)(F)F)n1` [^115In complex of Compound 2] has a Ki of less than 10 nM.
`CCOc1ccc(C(=O)N2CCN(c3ccc(-c4ccccc4OCC)nc3CNCCCOc3cc(NCCOCCNC(=O)CN4CCN(CC(=O)O)CCN(CC(=O)O)CCN(CC(=O)O)CC4)cc(C(=O)O)c3)[C@H](CC)C2)c(C(F)(F)F)c1` [^115In complex of Compound 3] gave a Ki of less than 10 nM.
Work on `CCOc1ccc(C(=O)N2CCN(c3ccc(-c4cccnc4OCC)nc3CNCCCN(CCOCCOCCOCCNC(=O)CN3CCN(CC(=O)O)CCN(CC(=O)O)CCN(CC(=O)O)CC3)CCOCCOCCOCCNC(=O)CN3CCN(CC(=O)O)CCN(CC(=O)O)CCN(CC(=O)O)CC3)[C@H](CC)C2)c(C(F)(F)F)n1` [^115In complex of Compound 4] yielded a Ki of less than 10 nM.
For `CCOc1ccc(C(=O)N2CCN(c3ccc(-c4cccnc4OCC)nc3CNCCCNC(=O)[C@@H](N)CC(=O)NCCOCCNC(=O)CN3CCN(CC(=O)O)CCN(CC(=O)O)CCN(CC(=O)O)CC3)[C@H](CC)C2)c(C(F)(F)F)n1` [^115In complex of Compound 5], the Ki was less than 10 nM.
“(R)-2,2′,2″-(10-(1-(3-(4-(4-ethoxy-2-(trifluoromethyl)benzoyl)-2-ethylpiperazin-1-yl)-6-(2-ethoxyphenyl)pyridin-2-yl)-19-oxo-6,9,12,15-tetraoxa-2,18-diazaicosan-20-yl)-1,4,7,10-tetraazacyclododecane-1,4,7-triyl)triacetic acid [Compound 11]” was tested, and the Ki was less than 10 nM.
